“Also recorded” adds a separate entry of the source. Like-named read-outs stand apart in the source and are kept apart here.
Target: 3CL Protease (M^pro) (SARS-CoV-2) (Severe acute respiratory syndrome coronavirus 2, UniProt P0DTD1)
Assay: biochemical
Assay type: biochemical
Details: for inhibitory activity against M^pro: concentration not given; for inhibitory effects on the activity of Mpro: eight concentrations (0-200 μM) tested, Figure S2; for inhibition of the M^pro activity: range of concentrations from 0 to 500 μM tested; for inhibition at 100 µM: read-out: M^pro activity inhibited compared with the negative control

Compound | inhibitory activity against M^pro | inhibitory effects on the activity of Mpro | inhibition of the M^pro activity | inhibition at 100 µM | IC50 | inhibition at 100 µM (100 μM compound)
Oc1cc(O)c2c(c1)O[C@@H](c1cc(O)c(O)c(O)c1)[C@H](O)C2 [GC, (+)-gallocatechin] | did not have inhibitory activities; also recorded: No inhibitory activity was detected | No inhibitory effects | did not detect |  |  | 
Oc1cc(O)c2c(c1)O[C@H](c1ccc(O)c(O)c1)[C@@H](O)C2 [CA, (+)-catechin] | did not have inhibitory activities; also recorded: No inhibitory activity was detected | No inhibitory effects | did not detect |  |  | 
Oc1cc(O)c2c(c1)O[C@H](c1ccc(O)c(O)c1)[C@H](O)[C@H]2c1c(O)cc(O)c2c1O[C@H](c1ccc(O)c(O)c1)[C@@H](O)C2 [procyanidin B1] | inhibited |  |  |  |  | 
Oc1cc(O)c2c(c1)O[C@@]1(c3ccc(O)c(O)c3)Oc3cc(O)c4c(c3[C@@H]2[C@H]1O)O[C@H](c1ccc(O)c(O)c1)[C@H](O)C4 [PA2, procyanidin A2] | did not have inhibitory activities | No inhibitory effects | did not detect |  |  | 
O=C(OC1Cc2c(O)cc(O)cc2OC1c1cc(O)c(O)c(O)c1)c1cc(O)c(O)c(O)c1 (single isomer, unassigned; (-)) [EGCG, (–)-epigallocatechin-3-O-gallate] | inhibited |  |  | 44.4% |  | 
O=C(O[C@@H]1Cc2c(O)cc(O)cc2O[C@@H]1c1ccc(O)c(O)c1)c1cc(O)c(O)c(O)c1 [ECG, (–)-epicatechin-3-O-gallate] | inhibited |  |  | 40% | 5.21 ± 0.5 µM | 
Oc1cc(O)c2c(c1)O[C@H](c1ccc(O)c(O)c1)[C@H](O)[C@H]2c1c(O)cc(O)c2c1O[C@H](c1ccc(O)c(O)c1)[C@H](O)C2 [PB2, procyanidin B2] | inhibited |  |  |  | 75.3 ± 1.29 µM | 81.5%
O=C(O[C@@H]1Cc2c(O)cc(O)cc2O[C@H]1c1ccc(O)c(O)c1)c1cc(O)c(O)c(O)c1 [CAG, (+)-catechin-3-O-gallate] | inhibited |  |  | 40% |  | 
Oc1cc(O)c2c(c1)O[C@H](c1ccc(O)c(O)c1)[C@H](O)C2 [EC, (–)-epicatechin] | did not have inhibitory activities; also recorded: No inhibitory activity was detected | No inhibitory effects | did not detect |  |  | 
Oc1cc(O)c2c(c1)O[C@H](c1cc(O)c(O)c(O)c1)[C@H](O)C2 [EGC, (–)-epigallocatechin] | did not have inhibitory activities; also recorded: No inhibitory activity was detected | No inhibitory effects | did not detect |  |  | 
O=C(O[C@@H]1Cc2c(O)cc(O)cc2O[C@H]1c1cc(O)c(O)c(O)c1)c1cc(O)c(O)c(O)c1 [GCG, (–)-gallocatechin-3-O-gallate] | inhibited |  |  | 50% |  | 

From PMC7733993, “Docking Characterization and in vitro Inhibitory Activity of Flavan-3-ols and Dimeric Proanthocyanidins Against the Main Protease Activity of SARS-Cov-2” (Frontiers in Plant Science, 2020)
